Assays:
HIV-1 (IIIB) = assay: Antiviral assay in MT-4 cells; type: cell-based; conditions: Human immunodeficiency virus 1, MT4, 120 h; HIV-1 IIIB in MT-4 cells, 5 days incubation, Cell Titer Glo; read-out: MT4 EC50
How it was run: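 HIV-1 IIIB-infected MT-4 cells (fresh 1:250 virus stock dilution; mock-infected controls) incubated 5 days at 37 °C with serially diluted compounds in RPMI/10% FBS; 5 μM AZT as positive control. Cell viability read by CellTiter-Glo luminescence as measure of protection from viral replication.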

[1] = Cytotoxicity assay in MT-4 cells; type: cell-based; conditions: human; uninfected MT-4 cells, 5 days incubation, Cell Titer Glo; read-out: MT4 CC50
How it was run: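 Uninfected MT-4 cells exposed to serially diluted compounds in RPMI with 10% FBS for 5 days at 37 °C. Viability by Cell Titer Glo chemiluminescence. Puromycin […] as baseline cytotoxicity control.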

Row | EC50 (HIV-1 (IIIB)) [nM] | SMILES | CC50 at 5 days [1] [nM]
1 | 2.24 | CCCCCCCCCOC(=O)OCOc1c2n(cc(C(=O)NCc3ccc(F)cc3F)c1=O)[C@@H]1CN(C2=O)[C@@H](C)CC[C@]12CC(C)=NO2 [Example 186, (((3′S,5S,7′R)-10′-((2,4-difluorobenzyl)carbamoyl)-3,3′-dimethyl-1′,11′-dioxo-1′,4′,5′,11′-tetrahydro-3′H,4H,7′H-spiro[isoxazole-5,6′-[2,7]methanopyrido[1,2-a][1,4]diazonin]-12′-yl)oxy)methyl nonyl carbonate] | ≥ 50000
2 | 0.495 | CCCCCCCCCCCCOC(=O)OCOc1c2n(cc(C(=O)NCc3ccc(F)cc3F)c1=O)[C@@H]1CN(C2=O)[C@@H](C)CC[C@]12CC(C)=NO2 [Example 190, (((3′S,5S,7′R)-10′-((2,4-difluorobenzyl)carbamoyl)-3,3′-dimethyl-1′,11′-dioxo-1′,4′,5′,11′-tetrahydro-3′H,4H,7′H-spiro[isoxazole-5,6′-[2,7]methanopyrido[1,2-a][1,4]diazonin]-12′-yl)oxy)methyl dodecyl carbonate] | ≥ 50000
3 | 33.5 | CCCCCCCCCCCCCCCCOC(=O)OCOc1c2n(cc(C(=O)NCc3ccc(F)cc3F)c1=O)[C@@H]1CN(C2=O)[C@@H](C)CC[C@]12CC(OC)=NO2 [Example 195, (((3′S,5S,7′R)-10′-((2,4-difluorobenzyl)carbamoyl)-3-methoxy-3′-methyl-1′,11′-dioxo-1′,4′˜5′,11′-tetrahydro-3′H,4H,7′H-spiro[isoxazole-5,6′-[2,7]methanopyrido[1,2-a][1,4]diazonin]-12′-yl)oxy)methyl hexadecyl carbonate] | ≥ 50000
4 | 6.29 | COC1=NO[C@@]2(CC[C@H](C)N3C[C@H]2n2cc(C(=O)NCc4ccc(F)cc4F)c(=O)c(OCOC(=O)OC(C)C)c2C3=O)C1 [Example 198, (((3′S,5S,7′R)-10′-((2,4-difluorobenzyl)carbamoyl)-3-methoxy-3′-methyl-1′,11′-dioxo-1′,4′,5′,11′-tetrahydro-3′H,4H,7′H-spiro[isoxazole-5,6′-[2,7]methanopyrido[1,2-a][1,4]diazonin]-12′-yl)oxy)methyl isopropyl carbonate] | ≥ 50000
5 | 0.358 | CCCCCCCOC(=O)OCOc1c2n(cc(C(=O)NCc3ccc(F)cc3F)c1=O)[C@@H]1CN(C2=O)[C@@H](C)CC[C@]12CC(C)=NO2 [Example 183, (((3′S,5S,7′R)-10′-((2,4-difluorobenzyl)carbamoyl)-3,3′-dimethyl-1′,11′-dioxo-1′,4′,5′,11′-tetrahydro-3′H,4H,7′H-spiro[isoxazole-5,6′-[2,7]methanopyrido[1,2-a][1,4]diazonin]-12′-yl)oxy)methyl heptyl carbonate] | 11400
6 | 3.82 | COC1=NO[C@@]2(CC[C@H](C)N3C[C@H]2n2cc(C(=O)NCc4ccc(F)cc4F)c(=O)c(OCOC(=O)OCCCC(C)C)c2C3=O)C1 [Example 204, (((3′S,5S,7′R)-10′-((2,4-difluorobenzyl)carbamoyl)-3-methoxy-3′-methyl-1′,11′-dioxo-1′,4′,5′,11′-tetrahydro-3′H,4H,7′H-spiro[isoxazole-5,6′-[2,7]methanopyrido[1,2-a][1,4]diazonin]-12′-yl)oxy)methyl (4-methylpentyl) carbonate] | 29800

Second part, the molecule before the results:

Row | SMILES | EC50 (HIV-1 (IIIB)) [nM] | CC50 at 5 days [1] [nM]
7 | CCCCCCOC(=O)Oc1c2n(cc(C(=O)NCc3ccc(F)cc3F)c1=O)[C@@H]1CN(C2=O)[C@@H](C)CC[C@]12CC(C)=NO2 [Example 131, (3′S,5S,7′R)-10′-((2,4-difluorobenzyl)carbamoyl)-3,3′-dimethyl-1′,11′-dioxo-1′,4′,5′,11′-tetrahydro-3′H,4H,7′H-spiro[isoxazole-5,6′-[2,7]methanopyrido[1,2-a][1,4]diazonin]-12′-yl hexyl carbonate] | 0.136 | 19800
8 | CC1=NO[C@@]2(CC[C@H](C)N3C[C@H]2n2cc(C(=O)NCc4ccc(F)cc4F)c(=O)c(OC(=O)CCCCCC(C)C)c2C3=O)C1 [Example 65, (3′S,5S,7′R)-10′-((2,4-difluorobenzyl)carbamoyl)-3,3′-dimethyl-1′,11′-dioxo-1′,4′,5′,11′-tetrahydro-3′H,4H,7′H-spiro[isoxazole-5,6′-[2,7]methanopyrido[1,2-a][1,4]diazonin]-12′-yl 7-methyloctanoate] | 3.01 | 21800
9 | CC1=NO[C@@]2(CC[C@H](C)N3C[C@H]2n2cc(C(=O)NCc4ccc(F)cc4F)c(=O)c(OCOC(=O)CC(C)C)c2C3=O)C1 [Example 111, (((3′S,5S,7′R)-10′-((2,4-difluorobenzyl)carbamoyl)-3,3′-dimethyl-1′,11′-dioxo-1′,4′,5′,11′-tetrahydro-3′H,4H,7′H-spiro[isoxazole-5,6′-[2,7]methanopyrido[1,2-a][1,4]diazonin]-12′-yl)oxy)methyl 3-methylbutanoate] | 1.95 | 13800
10 | COC1=NO[C@@]2(CC[C@H](C)N3C[C@H]2n2cc(C(=O)NCc4ccc(F)cc4F)c(=O)c(OCOC(C)=O)c2C3=O)C1 [Example 83, (((3′S,5S,7′R)-10′-((2,4-difluorobenzyl)carbamoyl)-3-methoxy-3′-methyl-1′,11′-dioxo-1′,4′,5′,11′-tetrahydro-3′H,4H,7′H-spiro[isoxazole-5,6′-[2,7]methanopyrido[1,2-a][1,4]diazonin]-12′-yl)oxy)methyl acetate] | 2.69 | 16000
11 | CCCCCCCCCC(=O)Oc1c2n(cc(C(=O)NCc3ccc(F)cc3F)c1=O)[C@@H]1CN(C2=O)[C@@H](C)CC[C@]12CC(C)=NO2 [Example 45, (3′S,5S,7′R)-10′-((2,4-difluorobenzyl)carbamoyl)-3,3′-dimethyl-1′,11′-dioxo-1′,4′,5′,11′-tetrahydro-3′H,4H,7′H-spiro[isoxazole-5,6′-[2,7]methanopyrido[1,2-a][1,4]diazonin]-12′-yl decanoate] | 0.373 | 22200
12 | CC1=NO[C@@]2(CC[C@H](C)N3C[C@H]2n2cc(C(=O)NCc4ccc(F)cc4F)c(=O)c(OCOC(=O)CCCCCC(C)C)c2C3=O)C1 [Example 117, (((3′S,5S,7′R)-10′-((2,4-difluorobenzyl)carbamoyl)-3,3′-dimethyl-1′,11′-dioxo-1′,4′,5′,11′-tetrahydro-3′H,4H,7′H-spiro[isoxazole-5,6′-[2,7]methanopyrido[1,2-a][1,4]diazonin]-12′-yl)oxy)methyl 7-methyloctanoate] | 2.84 | ≥ 50000
13 | COCCOC(=O)Oc1c2n(cc(C(=O)NCc3ccc(F)cc3F)c1=O)[C@@H]1CN(C2=O)[C@@H](C)CC[C@]12CC(C)=NO2 [Example 9, (3′S,5S,7′R)-10′-((2,4-difluorobenzyl)carbamoyl)-3,3′-dimethyl-1′,11′-dioxo-1′,4′,5′,11′-tetrahydro-3′H,4H,7′H-spiro[isoxazole-5,6′-[2,7]methanopyrido[1,2-a][1,4]diazonin]-12′-yl (2-methoxyethyl) carbonate] | 1.61 | 19600
14 | COCCCCCC(=O)Oc1c2n(cc(C(=O)NCc3ccc(F)cc3F)c1=O)[C@@H]1CN(C2=O)[C@@H](C)CC[C@]12CC(OC)=NO2 [Example 70, (3′S,5S,7′R)-10′-((2,4-difluorobenzyl)carbamoyl)-3-methoxy-3′-methyl-1′,11′-dioxo-1′,4′,5′,11′-tetrahydro-3′H,4H,7′H-spiro[isoxazole-5,6′-[2,7]methanopyrido[1,2-a][1,4]diazonin]-12′-yl 6-methoxyhexanoate] | 1.02 | 17600
15 | CCCCC(=O)Oc1c2n(cc(C(=O)NCc3ccc(F)cc3F)c1=O)[C@@H]1CN(C2=O)[C@@H](C)CC[C@]12CC(OC)=NO2 [Example 29, (3′S,5S,7′R)-10′-((2,4-difluorobenzyl)carbamoyl)-3-methoxy-3′-methyl-1′,11′-dioxo-1′,4′,5′,11′-tetrahydro-3′H,4H,7′H-spiro[isoxazole-5,6′-[2,7]methanopyrido[1,2-a][1,4]diazonin]-12′-yl pentanoate] | 1.61 | 12300
16 | CCCCCCCCCCOC(=O)Oc1c2n(cc(C(=O)NCc3ccc(F)cc3F)c1=O)[C@@H]1CN(C2=O)[C@@H](C)CC[C@]12CC(OC)=NO2 [Example 140, decyl ((3′S,5S,7′R)-10′-((2,4-difluorobenzyl)carbamoyl)-3-methoxy-3′-methyl-1′,11′-dioxo-1′,4′,5′,11′-tetrahydro-3′H,4H,7′H-spiro[isoxazole-5,6′-[2,7]methanopyrido[1,2-a][1,4]diazonin]-12′-yl) carbonate] | 3.36 | 15900
17 | COC1=NO[C@@]2(CC[C@H](C)N3C[C@H]2n2cc(C(=O)NCc4ccc(F)cc4F)c(=O)c(OC(=O)OCCCCCC(C)C)c2C3=O)C1 [Example 157, (3′S,5S,7′R)-10′-((2,4-difluorobenzyl)carbamoyl)-3-methoxy-3′-methyl-1′,11′-dioxo-1′,4′,5′,11′-tetrahydro-3′H,4H,7′H-spiro[isoxazole-5,6′-[2,7]methanopyrido[1,2-a][1,4]diazonin]-12′-yl (6-methylheptyl) carbonate] | 2.33 | 15400
18 | COC1=NO[C@@]2(CC[C@H](C)N3C[C@H]2n2cc(C(=O)NCc4ccc(F)cc4F)c(=O)c(OC(=O)C4CCCC4)c2C3=O)C1 [Example 52, (3′S,5S,7′R)-10′-((2,4-difluorobenzyl)carbamoyl)-3-methoxy-3′-methyl-1′,11′-dioxo-1′,4′,5′,11′-tetrahydro-3′H,4H,7′H-spiro[isoxazole-5,6′-[2,7]methanopyrido[1,2-a][1,4]diazonin]-12′-yl cyclopentanecarboxylate] | 0.604 | 24700

Reference: patent US20250122219A1 (priority 2023, published 2025)
